Results published in ChEMBL document CHEMBL3994622, “Design and synthesis of new RAF kinase-inhibiting antiproliferative quinoline derivatives. Part 2: Diarylurea derivatives” (Eur J Med Chem, 2017).

Assays:
Format in all cases: functional
OVCAR-8 = experiment: Growth inhibition of human OVCAR8 cells incubated for 48 hrs by sulforhodamine B assay; conditions: OVCAR-8, 48 h; for CC50: read-out: LC50 (the source's name)
SNB-75 = experiment: Growth inhibition of human SNB75 cells incubated for 48 hrs by sulforhodamine B assay; conditions: SNB-75, 48 h; for CC50: read-out: LC50 (the source's name)
SW-620 [1] = experiment: Growth inhibition of human SW620 cells incubated for 48 hrs by sulforhodamine B assay; conditions: SW-620, 48 h
SK-MEL-2 = experiment: Growth inhibition of human SK-MEL-2 cells incubated for 48 hrs by sulforhodamine B assay; conditions: SK-MEL-2, 48 h; for CC50: read-out: LC50 (the source's name)
K562 = experiment: Growth inhibition of human K562 cells incubated for 48 hrs by sulforhodamine B assay; conditions: K562, 48 h
HCC 2998 = experiment: Growth inhibition of human HCC2998 cells incubated for 48 hrs by sulforhodamine B assay; conditions: HCC 2998, 48 h; for CC50: read-out: LC50 (the source's name)
HL-60(TB) = experiment: Growth inhibition of human HL-60(TB) cells incubated for 48 hrs by sulforhodamine B assay; conditions: HL-60, 48 h; for CC50: read-out: LC50 (the source's name)
HOP-92 = experiment: Growth inhibition of human HOP92 cells assessed as cell growth at 0.003 uM incubated for 48 hrs by sulforhodamine B assay relative to control; conditions: HOP-92, 48 h, read-out: Activity
OVCAR-3 = experiment: Growth inhibition of human OVCAR3 cells incubated for 48 hrs by sulforhodamine B assay; conditions: OVCAR-3, 48 h; for CC50: read-out: LC50 (the source's name)
SK-MEL-28 = experiment: Growth inhibition of human SK-MEL-28 cells assessed as cell growth at 30 uM incubated for 48 hrs by sulforhodamine B assay relative to control; conditions: SK-MEL-28, 48 h, read-out: Activity
OVCAR-5 = experiment: Growth inhibition of human OVCAR5 cells incubated for 48 hrs by sulforhodamine B assay; conditions: OVCAR-5, 48 h; for CC50: read-out: LC50 (the source's name)
NCI-H23 = experiment: Growth inhibition of human NCI-H23 cells assessed as cell growth at 30 uM incubated for 48 hrs by sulforhodamine B assay relative to control; conditions: NCI-H23, 48 h, read-out: Activity
SF-539 = experiment: Growth inhibition of human SF539 cells incubated for 48 hrs by sulforhodamine B assay; conditions: SF-539, 48 h; for CC50: read-out: LC50 (the source's name)
TK-10 = experiment: Growth inhibition of human TK10 cells incubated for 48 hrs by sulforhodamine B assay; conditions: TK-10, 48 h; for CC50: read-out: LC50 (the source's name)
A549 = experiment: Growth inhibition of human A549/ATCC cells incubated for 48 hrs by sulforhodamine B assay; conditions: A549, 48 h; for CC50: read-out: LC50 (the source's name)
Malme-3M = experiment: Growth inhibition of human MALME-3M cells incubated for 48 hrs by sulforhodamine B assay; conditions: for CC50: read-out: LC50 (the source's name)
PC-3 = experiment: Growth inhibition of human PC3 cells incubated for 48 hrs by sulforhodamine B assay; conditions: PC-3, 48 h; for CC50: read-out: LC50 (the source's name)
LOX IMVI = experiment: Growth inhibition of human LOXIMVI cells incubated for 48 hrs by sulforhodamine B assay; conditions: for CC50: read-out: LC50 (the source's name)
UO-31 = experiment: Growth inhibition of human UO31 cells incubated for 48 hrs by sulforhodamine B assay; conditions: UO-31, 48 h; for CC50: read-out: LC50 (the source's name)
SW-620 [2] = experiment: Growth inhibition of human SW620 cells assessed as cell growth at 3 uM incubated for 48 hrs by sulforhodamine B assay relative to control; conditions: SW-620, 48 h, read-out: Activity
M14 = experiment: Growth inhibition of human M14 cells incubated for 48 hrs by sulforhodamine B assay; conditions: M14, 48 h; for CC50: read-out: LC50 (the source's name)
MOLT-4 = experiment: Growth inhibition of human MOLT4 cells incubated for 48 hrs by sulforhodamine B assay; conditions: MOLT-4, 48 h
SR = experiment: Growth inhibition of human SR cells assessed as cell growth at 3 uM incubated for 48 hrs by sulforhodamine B assay relative to control; conditions: read-out: Activity
HCT-116 = experiment: Growth inhibition of human HCT116 cells incubated for 48 hrs by sulforhodamine B assay; conditions: HCT-116, 48 h
CCRF-CEM = experiment: Growth inhibition of human CCRF-CEM cells incubated for 48 hrs by sulforhodamine B assay; conditions: for CC50: read-out: LC50 (the source's name)
COLO 205 = experiment: Growth inhibition of human COLO205 cells incubated for 48 hrs by sulforhodamine B assay; conditions: COLO 205, 48 h; for CC50: read-out: LC50 (the source's name)

## COc1cc2cc(Oc3ccc(NC(=O)Nc4ccc(Cl)c(C(F)(F)F)c4)cc3)c(C)nc2cc1OC
OVCAR-8
  GI50: 1.04 µM
  TGI: 4.55 µM
  CC50: > 32.5 µM
SNB-75
  GI50: 1.03 µM
  TGI: 4.9 µM
  CC50: > 32.5 µM
SW-620 [1]
  GI50: 1.25 µM
  LC50: 14 µM
  TGI: 4.57 µM
SK-MEL-2
  GI50: 0.799 to 0.8 µM
  TGI: 1.94 µM
  CC50: 11 µM
K562
  GI50: 1.11 µM
  LC50 (concentration killing 50% of cells): 23.6 µM
  TGI: 4.81 µM
HCC 2998
  GI50: 1.77 µM
  TGI: 5.48 µM
  CC50: 13.6 µM
HL-60(TB)
  GI50: 1.13 µM
  TGI: 3.12 µM
  CC50: > 32.5 µM
HOP-92
  growth at 0.003 µM: 92%
OVCAR-3
  GI50: 1.16 µM
  TGI: 4.45 µM
  CC50: 14 µM
SK-MEL-28
  growth at 30 µM: -92%
OVCAR-5
  GI50: 1.93 µM
  TGI: 6.22 µM
  CC50: 17.4 µM
NCI-H23
  growth at 30 µM: -75%
SF-539
  GI50: 1.96 µM
  TGI: 8.39 µM
  CC50: > 32.5 µM
TK-10
  GI50: 1.32 µM
  TGI: 6.19 µM
  CC50: > 32.5 µM
A549
  GI50: 1 µM
  TGI: 4.16 µM
  CC50: 15.1 µM
Malme-3M
  GI50: 1.33 µM
  TGI: 5.71 µM
  CC50: > 32.5 µM
PC-3
  GI50: 0.781 µM
  TGI: 2.96 µM
  CC50: > 32.5 µM
LOX IMVI
  GI50: 1.22 µM
  TGI: 4.16 µM
  CC50: 11.6 µM
UO-31
  GI50: 0.924 µM
  TGI: 2.38 µM
  CC50: 13.4 µM
SW-620 [2]
  growth at 3 µM: 15%
M14
  GI50: 1.25 µM
  TGI: 5.25 µM
  CC50: 19.2 µM
MOLT-4
  GI50: 1.14 µM
  LC50: > 32.5 µM
  TGI: 5.49 µM
SR
  growth at 3 µM: -9%
HCT-116
  GI50: 0.994 µM
  LC50 (50% lethal concentration): 14 µM
  TGI: 3.84 µM
CCRF-CEM
  GI50: 1.01 µM
  TGI: 3.09 µM
  CC50: > 32.5 µM
COLO 205
  GI50: 0.66 µM
  TGI: 1.31 µM
  CC50: 2.59 µM

## Cc1nc2cc(O)c(O)cc2cc1Oc1ccc(NC(=O)Nc2ccc(Cl)c(Cl)c2)cc1
OVCAR-8
  GI50: 5.77 µM
  TGI: > 32.5 µM
  CC50: > 32.5 µM
SNB-75
  GI50: 7.73 µM
  TGI: 28.9 µM
  CC50: > 32.5 µM
SW-620 [1]
  GI50: 4.9 µM
  LC50: > 32.5 µM
  TGI: > 32.5 µM
SK-MEL-2
  GI50: 8.83 µM
  TGI: 21.1 µM
  CC50: > 32.5 µM
K562
  GI50: 6.93 µM
  LC50 (concentration killing 50% of cells): > 32.5 µM
  TGI: 29.6 µM
HCC 2998
  GI50: 6.7 µM
  TGI: 14.6 µM
  CC50: 32 µM
HL-60(TB)
  GI50: 9.02 µM
  TGI: 22.4 µM
  CC50: > 32.5 µM
HOP-92
  growth at 0.003 µM: 84%
OVCAR-3
  GI50: 8.52 µM
  TGI: 19.9 µM
  CC50: > 32.5 µM
SK-MEL-28
  growth at 30 µM: -3%
OVCAR-5
  GI50: 11.6 µM
  TGI: 29.3 µM
  CC50: > 32.5 µM
NCI-H23
  growth at 30 µM: -25%
SF-539
  GI50: 8.86 µM
  TGI: 22.7 µM
  CC50: > 32.5 µM
TK-10
  GI50: 14.2 µM
  TGI: > 32.5 µM
  CC50: > 32.5 µM
A549
  GI50: 8.99 µM
  TGI: 26.2 µM
  CC50: > 32.5 µM
Malme-3M
  GI50: 8.6 µM
  TGI: 26 µM
  CC50: > 32.5 µM
PC-3
  GI50: 4.36 µM
  TGI: > 32.5 µM
  CC50: > 32.5 µM
UO-31
  GI50: 6.97 µM
  TGI: 14.9 µM
  CC50: 31.9 µM
SW-620 [2]
  growth at 3 µM: 57%
M14
  GI50: 5.97 µM
  TGI: 13.8 µM
  CC50: 32 µM
MOLT-4
  GI50: 8.87 µM
  LC50: > 32.5 µM
  TGI: > 32.5 µM
SR
  growth at 3 µM: 28%
HCT-116
  GI50: 2.24 µM
  LC50 (50% lethal concentration): > 32.5 µM
  TGI: 13.6 µM
CCRF-CEM
  GI50: 6.19 µM
  TGI: 21.8 µM
  CC50: > 32.5 µM
COLO 205
  GI50: 10.3 µM
  TGI: > 32.5 µM
  CC50: > 32.5 µM

## COc1cc2cc(Oc3ccc(NC(=O)Nc4cccc(C(F)(F)F)c4)cc3)c(C)nc2cc1OC
OVCAR-8
  GI50: 1.71 µM
  TGI: 6.28 µM
  CC50: 19.9 µM
SNB-75
  GI50: 1.17 µM
  TGI: 6.18 µM
  CC50: > 50 µM
SW-620 [1]
  GI50: 2.28 µM
  LC50: > 50 µM
  TGI: 11.1 µM
SK-MEL-2
  GI50: 1.28 µM
  TGI: 2.87 µM
  CC50: 9.93 µM
K562
  GI50: 1.73 µM
  LC50 (concentration killing 50% of cells): > 50 µM
  TGI: 14 µM
HCC 2998
  GI50: 2.59 µM
  TGI: > 50 µM
  CC50: > 50 µM
HL-60(TB)
  GI50: 1.56 µM
  TGI: 3.91 µM
  CC50: > 50 µM
OVCAR-3
  GI50: 2.04 µM
  TGI: 8.07 µM
  CC50: 39.9 µM
OVCAR-5
  GI50: 3.02 µM
  TGI: 13 µM
  CC50: > 50 µM
SF-539
  GI50: 2.48 µM
  TGI: 8.74 µM
  CC50: 25.4 µM
TK-10
  GI50: 2.26 µM
  TGI: 9.93 µM
  CC50: > 50 µM
A549
  GI50: 1.47 µM
  TGI: 6.49 µM
  CC50: 26.6 µM
Malme-3M
  GI50: 1.71 µM
  TGI: 4.9 µM
  CC50: 33.8 µM
PC-3
  GI50: 1.39 µM
  TGI: 5.49 µM
  CC50: 30.4 µM
LOX IMVI
  GI50: 1.84 µM
  TGI: 6.61 µM
  CC50: 18.3 µM
UO-31
  GI50: 1.98 µM
  TGI: 10.8 µM
  CC50: > 50 µM
M14
  GI50: 1.67 µM
  TGI: 7.67 µM
  CC50: 35.6 µM
MOLT-4
  GI50: 1.55 µM
  LC50: > 50 µM
  TGI: 6.87 µM
HCT-116
  GI50: 1.46 µM
  LC50 (50% lethal concentration): 20.4 µM
  TGI: 5.84 µM
COLO 205
  GI50: 1.12 µM
  TGI: 2.4 µM
  CC50: 5.7 µM
